The nature of data set [1]: Repeat dose range finding toxicity study in APP751LonSwe transgenic mice. The note with it: both sexes, APP751LonSwe transgenic, C57Bl/6 background, mouse, in vivo; oral, 3 times per week for 2 weeks; read-out: maximum tolerated dose (MTD). Format: in vivo. How it is done: (§1) Determination of the maximum tolerated dose of SRI-011381 in APP transgenic mice on a C57Bl/6 genetic background: A repeat dose range finding toxicity study was also performed in APP751^LonSwe transgenic mice to select doses for evaluation in the efficacy study. Compound SRI-011381 was dissolved in a vehicle containing 15% solutol and 85% water. The formulated compound was administered orally to APP751^LonSwe transgenic mice at 0 (vehicle only), 10, 30, 60, or 100 mg/kg of body weight 3 times a week for 2 weeks (this is the regimen intended to be used for the preclinical treatment study in these mice). Five mice (3 male and 2 female) were used for each dosage group. The starting ages of the mice ranged from 4.4 to 6.1 months. Serum and whole blood samples were collected at the end of the study and subjected to clinical chemistry and hematology analysis.

Data set [2] has as its system APP751LonSwe transgenic mice. The data set is described as above. Format: in vivo. The note with it: oral 10, 30, 60, or 100 mg/kg 3 times a week for 2 weeks. How it is done: as §1
Data set [3] has as its system GFAP-luc mice. Description: Kainic acid lesion in GFAP-luc mice, bioluminescence. It counts as in vivo, mouse. Particulars: kainic acid 20 mg/kg. As for the experimental part:
FIGS. 5A-5B show GFAP-luc mice (2-month-old) lesioned with kainic acid (20 mg/kg). Bioluminescence was recorded longitudinally at indicated time points in each mouse. Representative images showing increased bioluminescence signals over the brain after kainic acid injury (left panel) and the reduction by SRI-011381 (381) treatment (right panel) (FIG. 5A). Bioluminescence is expressed as fold induction over baseline, which was measured 1 day before kainic acid administration for each mouse (FIG. 5B). Bars are mean±SEM (n=4-7 mice). The mice were sacrificed 5 days later. Brains were removed, fixed with paraformaldehyde, sectioned and stained with cresyl violet, or immunohistochemical methods. […] Bars are mean±SEM (n=4-7 mice/group) and the asterisk signifies P<0.05 by unpaired t test.

A short description of data set [4]: PAMPA-BBB permeability assay. Format: in vitro ADME. How it is done:
Permeability Assays: PAMPA screens, both for absorption from the gut and through blood brain barrier, were used as a first tier screen for this program. SRI-011381 was evaluated in the double sink assay format and the sum of the permeability coefficients at three pH values (7.4, 6.2, 5.0) was calculated (Pe) to be 781×10^−6 cm/s, which is consistent with an orally available compound.
Permeability PAMPA: The PAMPA assay was used to predict oral bioavailability of compounds. The PAMPA determines the permeability of compounds across a biological membrane using a synthetic lipid membrane and detection by UV absorbance. […] The PAMPA-BBB assay was performed, to predict permeability to the blood brain barrier, as an aqueous assay and as a co-solvent assay. In this assay the composition of the lipid membrane included brain-derived lipids, mimicking the BBB membrane.
In general terms: In PAMPA a lipid-coated filter parts donor from acceptor wells.

Data set [5] deals with Sprague Dawley rats. Kind of data set: 7-Day oral gavage dose range finding and toxicokinetic study in rats. Format: in vivo. As for the experimental part:
7-Day oral gavage dose range finding and toxicokinetic study of SRI-011381 in male and female Sprague Dawley rats: The objective of this study was to determine maximum tolerated dose (MTD), characterize the potential toxicity, and estimate the dose dependence of exposure to SRI-011381 in adult male and female Sprague Dawley rats following daily oral gavage (po) dose administration for 7 consecutive days. The doses studied were 2, 10, and 50 mg/kg, formulated in 15% Solutol/85% sterile water and administered in the volume of 10 ml/kg.
Species and Strain: Sprague Dawley rat; Route of Administration: Oral (po); Frequency: Daily administration for 7 consecutive days; Dosing Volume: 10 ml/kg; Dose volumes will be calculated based on the animal's most recent body weight; Duration of In-life Phase: 8 days; Endpoints: clinical observations, mortality, body weights, clinical chemistry, hematology, gross pathology, organ weights, histopathology, toxicokinetics.

The mark [6] stands for this setting: po 2, 10, 50 mg/kg daily for 7 days.

1 compound from patent US9796674B2, “Benzyl urea derivatives for activating TGF-beta signaling” (THE BOARD OF TRUSTEES OF THE LELAND STANFORD JUNIOR …, priority 2013, dated 2017) can be followed below.

What is called MTD is the highest dose tested that stayed within the study's limit of toxicity.

Regarding `O=C(NC1CCCCC1)N(Cc1ccccc1)CC1CCNCC1` [SRI-011381, 1-Benzyl-3-cyclohexyl-1-(piperidin-4-ylmethyl)urea], the MTD at 2 weeks in data set [1] was above 100 mg/kg. Moreover, in data set [2], the body weight result was “no significant differences in body weight” and the “clinical chemistry or hematology parameters” value is reported as “no statistically significant changes”. Further, the “bioluminescence signals over the brain after kainic acid injury” value in data set [3] is “reduction”. Also, in data set [4], the “PAMPA-BBB Pe” value was 4.2±2.2 ×10^−6 cm/s. Moreover, in data set [4] (PAMPA, read-out: PAMPA-BBB Pe), the Papp turned out to be 4.2 ± 2.2 ×10⁻⁶ cm/s. Moreover, in data set [5] (high dose group (50 mg/kg)), the LDH result is “significantly lower in male rats of the high dose group”. Besides, the “gender related differences in exposure” value in data set [5] (male and female rats) was “nor were gender related differences observed”. Moreover, the “exposure after 7 doses compared to the first dose” value in data set [5] (po 2, 10, 50 mg/kg) was “no apparent change in exposure”. Also, in data set [5] (setting [6]), the “alkaline phosphatase (ALP) levels” value was “significantly elevated in all treatment groups in the female rats, though not in males”; the body weight entry is listed as “no statistically significant differences in body weight”; the clinical observations entry is recorded as “appeared normal”; the hematology parameters result is listed as “no significant changes in any hematology parameters”. The “exposure based on plasma collected 1 h after dose” value in data set [5] (po 2, 10, 50 mg/kg, Day 1 and 7) is given as “increased in a dose dependent fashion”.
